Tests used:
Plasmodium falciparum [1] = assay: Antimalarial activity against Plasmodium falciparum 3D7; type: functional, organism-based
Plasmodium falciparum [2] = assay: Antimalarial activity against Plasmodium falciparum K1; type: functional, organism-based

Compound	IC50 (Plasmodium falciparum [1])	IC50 (Plasmodium falciparum [2])
CC(C)(C)NCc1cc(Nc2ccnc3cc(Cl)ccc23)cc(-c2ccc(Cl)cc2)c1F [FLOUROTEBUQUINE]	58 nM	74 nM
CC(C)(C)NCc1cc(Nc2ccnc3cc(Cl)ccc23)cc(-c2ccc(Cl)cc2)c1O [TEBUQUINE]	18 nM	21 nM
